Laboratory results published in ChEMBL document CHEMBL1146943, “Synthesis, in vitro and in vivo evaluation of [O-methyl-11C] 2-{4-[4-(3-methoxyphenyl)piperazin-1-yl]-butyl}-4-methyl-2H-[1,2,4]-triazine-3,5-dione: a novel agonist 5-HT1A receptor PET ligand” (Bioorg Med Chem Lett, 2006).

Legend:
Adenosine receptor A1 = Adenosine receptor A1 (Homo sapiens, UniProt P30542); test: Binding affinity to adenosine A1 receptor by radioligand binding assay
[1] = molecular target: Glutamate receptor ionotropic kainate; test: Binding affinity to KAR by radioligand binding assay; type: protein-complex assay
[2] = Binding affinity to calcium channel by radioligand binding assay
D(3) dopamine receptor = D(3) dopamine receptor (Homo sapiens, UniProt P35462); test: Binding affinity to D3 receptor by radioligand binding assay
Adenosine receptor A3 = Adenosine receptor A3 (Homo sapiens, UniProt P0DMS8); test: Binding affinity to adenosine A3 receptor by radioligand binding assay
[3] = Binding affinity to VMAT by radioligand binding assay
[4] = molecular target: Glutamate receptor ionotropic AMPA (Homo sapiens, UniProt P42261+P42262+P42263+P48058); test: Binding affinity to AMPA receptor by radioligand binding assay; type: protein-complex assay
[5] = molecular target: Alpha-1B adrenergic receptor (Homo sapiens, UniProt P35368); test: Binding affinity to alpha 1B adrenergic receptor by radioligand binding assay
[6] = molecular target: Kappa-type opioid receptor (Homo sapiens, UniProt P41145); test: Binding affinity to KOR by radioligand binding assay
[7] = Binding affinity to mGluR by radioligand binding assay; design: species or system Homo sapiens
[8] = molecular target: Sigma non-opioid intracellular receptor 1 (Homo sapiens, UniProt Q99720); test: Binding affinity to sigma1 opioid receptor by radioligand binding assay
Histamine H2 receptor = Histamine H2 receptor (Homo sapiens, UniProt P25021); test: Binding affinity to histamine H2 receptor by radioligand binding assay
[9] = molecular target: Serotonin 3 (5-HT3) receptor; test: Binding affinity to 5HT3 receptor by radioligand binding assay; type: protein-complex assay, Homo sapiens
[10] = Binding affinity to V receptor by radioligand binding assay
[11] = Binding affinity to sodium channel by radioligand binding assay
[12] = molecular target: 5-hydroxytryptamine receptor 6 (Homo sapiens, UniProt P50406); test: Binding affinity to 5HT6 receptor by radioligand binding assay
[13] = molecular target: 5-hydroxytryptamine receptor 7 (Homo sapiens, UniProt P34969); test: Binding affinity to 5HT7 receptor by radioligand binding assay
[14] = molecular target: Voltage-gated inwardly rectifying potassium channel KCNH2 (Homo sapiens, UniProt Q12809); test: Binding affinity to hERG by radioligand binding assay
[15] = molecular target: Sodium-dependent dopamine transporter (Homo sapiens, UniProt Q01959); test: Binding affinity to DAT by radioligand binding assay
[16] = molecular target: Delta-type opioid receptor (Homo sapiens, UniProt P41143); test: Binding affinity to DOR by radioligand binding assay
Histamine H4 receptor = Histamine H4 receptor (Homo sapiens, UniProt Q9H3N8); test: Binding affinity to histamine H4 receptor by radioligand binding assay
[17] = molecular target: T1, 5-hydroxytryptamine receptor 1A (Homo sapiens, UniProt P08908); test: Agonist activity assessed by stimulation of [35S]GTP-gamma-S binding to human 5HT1A receptor expressed in CHO cells; type: functional, cell-based
Histamine H1 receptor = Histamine H1 receptor (Homo sapiens, UniProt P35367); test: Binding affinity to histamine H1 receptor by radioligand binding assay
[18] = molecular target: Glutamate [NMDA] receptor; test: Binding affinity to NMDA receptor by radioligand binding assay; type: protein-complex assay
Translocator protein = Translocator protein (Homo sapiens, UniProt P30536); test: Binding affinity to BZP receptor by radioligand binding assay
Adenosine A2 receptor = Adenosine A2 receptor (Homo sapiens, UniProt P29275+P29274); test: Binding affinity to adenosine A2 receptor by radioligand binding assay; type: protein assay
D(1B) dopamine receptor = D(1B) dopamine receptor (Homo sapiens, UniProt P21918); test: Binding affinity to D5 dopamine receptor by radioligand binding assay
[19] = molecular target: 5-hydroxytryptamine receptor 2B (Homo sapiens, UniProt P41595); test: Binding affinity to 5HT2B receptor by radioligand binding assay
[20] = molecular target: Sodium-dependent noradrenaline transporter (Homo sapiens, UniProt P23975); test: Binding affinity to NET by radioligand binding assay
[21] = molecular target: 5-hydroxytryptamine receptor 2A (Homo sapiens, UniProt P28223); test: Binding affinity to 5HT2A receptor by radioligand binding assay
D(4) dopamine receptor = D(4) dopamine receptor (Homo sapiens, UniProt P21917); test: Binding affinity to D4 receptor by radioligand binding assay
[22] = molecular target: GABA-A receptor; anion channel; test: Binding affinity to GABA receptor by radioligand binding assay; type: protein-complex assay
[23] = molecular target: Alpha-2C adrenergic receptor (Homo sapiens, UniProt P18825); test: Binding affinity to alpha 2C adrenergic receptor by radioligand binding assay
[24] = Binding affinity to EP receptor by radioligand binding assay
D(2) dopamine receptor = D(2) dopamine receptor (Homo sapiens, UniProt P14416); test: Binding affinity to D2 dopamine receptor by radioligand binding assay
[25] = molecular target: Alpha-2A adrenergic receptor (Homo sapiens, UniProt P08913); test: Binding affinity to alpha 2A adrenergic receptor by radioligand binding assay
[26] = molecular target: 5-hydroxytryptamine receptor 1E (Homo sapiens, UniProt P28566); test: Binding affinity to 5HT1E receptor by radioligand binding assay
[27] = Binding affinity to NK receptor by radioligand binding assay
[28] = molecular target: ATP-dependent translocase ABCB1 (Homo sapiens, UniProt P08183); test: Binding affinity to MDR1 by radioligand binding assay
[29] = molecular target: 5-hydroxytryptamine receptor 1A (Homo sapiens) (UniProt P08908); test: Agonist activity assessed by stimulation of [35S]GTP-gamma-S binding to human 5HT1A receptor expressed in CHO cells relative to 5-HT; type: functional, cell-based
[30] = molecular target: 5-hydroxytryptamine receptor 1B (Homo sapiens, UniProt P28222); test: Binding affinity to 5HT1B receptor by radioligand binding assay
[31] = molecular target: T1, 5-hydroxytryptamine receptor 1A; test: Binding affinity to 5HT1A receptor by radioligand binding assay
[32] = molecular target: 5-hydroxytryptamine receptor 5A (Homo sapiens, UniProt P47898); test: Binding affinity to 5HT5A receptor by radioligand binding assay
Adenosine receptor A2a = Adenosine receptor A2a (Homo sapiens, UniProt P29274); test: Binding affinity to adenosine […] receptor by radioligand binding assay
[33] = molecular target: Alpha-1A adrenergic receptor (Homo sapiens, UniProt P35348); test: Binding affinity to alpha 1A adrenergic receptor by radioligand binding assay
[34] = molecular target: Sodium-dependent serotonin transporter (Homo sapiens, UniProt P31645); test: Binding affinity to SERT by radioligand binding assay
[35] = molecular target: Muscarinic acetylcholine receptor; test: Binding affinity to M receptor by radioligand binding assay; type: protein assay
Histamine H3 receptor = Histamine H3 receptor (Homo sapiens, UniProt Q9Y5N1); test: Binding affinity to histamine H3 receptor by radioligand binding assay
Baboon = test: Penetration through blood-brain barrier in baboon; type: ADME, organism-based, Papio; details: in vivo

T1 sequence (P08908 whole entry): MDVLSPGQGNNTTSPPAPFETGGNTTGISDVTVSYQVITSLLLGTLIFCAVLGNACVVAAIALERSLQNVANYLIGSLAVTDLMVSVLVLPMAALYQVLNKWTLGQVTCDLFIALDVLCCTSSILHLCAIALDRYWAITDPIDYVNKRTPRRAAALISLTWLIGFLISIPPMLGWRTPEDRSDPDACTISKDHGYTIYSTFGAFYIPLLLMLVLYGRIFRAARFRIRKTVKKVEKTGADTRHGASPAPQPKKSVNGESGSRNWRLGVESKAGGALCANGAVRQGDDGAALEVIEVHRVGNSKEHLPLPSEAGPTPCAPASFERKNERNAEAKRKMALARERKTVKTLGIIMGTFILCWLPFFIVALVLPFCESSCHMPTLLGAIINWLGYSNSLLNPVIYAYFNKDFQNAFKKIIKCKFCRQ
5-hydroxytryptamine receptor 7, sequence (P34969 whole entry): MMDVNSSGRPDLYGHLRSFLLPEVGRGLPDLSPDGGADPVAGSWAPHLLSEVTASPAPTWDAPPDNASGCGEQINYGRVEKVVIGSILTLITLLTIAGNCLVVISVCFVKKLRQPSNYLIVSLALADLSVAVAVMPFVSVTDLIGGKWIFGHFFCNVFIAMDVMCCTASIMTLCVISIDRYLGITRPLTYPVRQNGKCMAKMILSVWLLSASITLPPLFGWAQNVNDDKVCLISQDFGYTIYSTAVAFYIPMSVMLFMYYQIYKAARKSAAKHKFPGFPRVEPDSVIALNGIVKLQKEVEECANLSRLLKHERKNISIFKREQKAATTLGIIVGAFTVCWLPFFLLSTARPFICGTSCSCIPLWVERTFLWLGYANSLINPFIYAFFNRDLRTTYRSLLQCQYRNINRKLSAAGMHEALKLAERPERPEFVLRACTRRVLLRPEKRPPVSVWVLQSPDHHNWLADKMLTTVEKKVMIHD
Adenosine receptor A3, sequence (P0DMS8 whole entry): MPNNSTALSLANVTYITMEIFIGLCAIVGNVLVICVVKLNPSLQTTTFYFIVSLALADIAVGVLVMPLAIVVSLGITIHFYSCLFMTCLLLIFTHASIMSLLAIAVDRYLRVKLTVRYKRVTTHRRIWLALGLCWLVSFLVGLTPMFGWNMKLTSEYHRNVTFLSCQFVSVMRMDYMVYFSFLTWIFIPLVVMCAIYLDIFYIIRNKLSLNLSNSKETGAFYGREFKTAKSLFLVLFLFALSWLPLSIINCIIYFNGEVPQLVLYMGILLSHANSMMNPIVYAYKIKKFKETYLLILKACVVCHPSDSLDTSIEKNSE
D(4) dopamine receptor, sequence (P21917 whole entry): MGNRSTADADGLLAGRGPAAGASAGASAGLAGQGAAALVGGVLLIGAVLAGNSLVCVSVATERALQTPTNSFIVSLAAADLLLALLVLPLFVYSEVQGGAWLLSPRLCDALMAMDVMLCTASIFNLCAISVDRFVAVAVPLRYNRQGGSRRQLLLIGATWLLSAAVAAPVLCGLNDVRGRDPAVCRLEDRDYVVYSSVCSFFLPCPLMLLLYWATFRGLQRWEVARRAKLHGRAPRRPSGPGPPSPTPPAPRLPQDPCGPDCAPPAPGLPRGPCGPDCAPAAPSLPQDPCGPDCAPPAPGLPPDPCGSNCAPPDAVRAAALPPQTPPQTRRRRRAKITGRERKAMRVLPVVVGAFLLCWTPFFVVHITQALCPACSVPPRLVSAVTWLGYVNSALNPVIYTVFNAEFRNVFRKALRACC
Adenosine receptor A2a, sequence (P29274 whole entry): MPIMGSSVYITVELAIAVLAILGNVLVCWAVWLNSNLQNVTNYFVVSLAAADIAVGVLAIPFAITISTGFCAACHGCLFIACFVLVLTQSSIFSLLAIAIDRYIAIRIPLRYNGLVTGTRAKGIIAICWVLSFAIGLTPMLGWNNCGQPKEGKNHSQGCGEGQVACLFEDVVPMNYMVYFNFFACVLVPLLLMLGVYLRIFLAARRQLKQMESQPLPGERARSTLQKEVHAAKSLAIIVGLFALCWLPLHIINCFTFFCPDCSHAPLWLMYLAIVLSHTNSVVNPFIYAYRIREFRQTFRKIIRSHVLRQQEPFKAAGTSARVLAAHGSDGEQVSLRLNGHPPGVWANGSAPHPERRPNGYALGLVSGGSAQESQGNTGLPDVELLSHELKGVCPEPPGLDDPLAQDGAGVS
5-hydroxytryptamine receptor 1E, sequence (P28566 whole entry): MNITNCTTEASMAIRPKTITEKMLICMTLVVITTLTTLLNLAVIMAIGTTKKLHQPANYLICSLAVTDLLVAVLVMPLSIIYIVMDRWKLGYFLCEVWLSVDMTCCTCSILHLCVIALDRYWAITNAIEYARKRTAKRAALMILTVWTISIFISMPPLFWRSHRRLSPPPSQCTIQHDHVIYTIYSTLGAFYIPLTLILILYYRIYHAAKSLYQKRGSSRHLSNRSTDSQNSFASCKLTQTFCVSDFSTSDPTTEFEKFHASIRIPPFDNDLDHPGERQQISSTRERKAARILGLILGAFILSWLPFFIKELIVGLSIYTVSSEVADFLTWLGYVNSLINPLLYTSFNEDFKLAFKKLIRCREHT
Histamine H2 receptor, sequence (P25021 whole entry): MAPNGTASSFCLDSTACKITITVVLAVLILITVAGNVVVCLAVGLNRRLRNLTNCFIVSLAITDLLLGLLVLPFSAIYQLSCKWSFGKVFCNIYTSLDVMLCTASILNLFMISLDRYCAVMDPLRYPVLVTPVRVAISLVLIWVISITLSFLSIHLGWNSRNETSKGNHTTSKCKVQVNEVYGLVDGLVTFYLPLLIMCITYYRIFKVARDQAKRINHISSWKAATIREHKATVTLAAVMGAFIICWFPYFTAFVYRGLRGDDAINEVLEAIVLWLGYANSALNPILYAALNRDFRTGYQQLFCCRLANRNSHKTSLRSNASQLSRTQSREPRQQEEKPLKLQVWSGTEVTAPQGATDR
5-hydroxytryptamine receptor 2A, sequence (P28223 whole entry): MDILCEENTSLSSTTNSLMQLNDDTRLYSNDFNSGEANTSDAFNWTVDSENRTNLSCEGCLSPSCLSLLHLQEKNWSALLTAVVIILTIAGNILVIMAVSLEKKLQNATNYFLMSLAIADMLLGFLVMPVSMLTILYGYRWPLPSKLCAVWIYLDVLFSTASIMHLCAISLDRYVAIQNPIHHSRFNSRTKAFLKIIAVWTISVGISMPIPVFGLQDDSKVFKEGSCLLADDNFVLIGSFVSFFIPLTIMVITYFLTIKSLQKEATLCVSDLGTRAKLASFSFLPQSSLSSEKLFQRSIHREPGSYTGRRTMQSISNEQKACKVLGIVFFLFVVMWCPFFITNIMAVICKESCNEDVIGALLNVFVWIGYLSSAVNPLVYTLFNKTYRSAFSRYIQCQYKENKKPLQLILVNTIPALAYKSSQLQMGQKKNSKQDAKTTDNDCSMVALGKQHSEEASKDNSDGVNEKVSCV
Histamine H4 receptor, sequence (Q9H3N8 whole entry): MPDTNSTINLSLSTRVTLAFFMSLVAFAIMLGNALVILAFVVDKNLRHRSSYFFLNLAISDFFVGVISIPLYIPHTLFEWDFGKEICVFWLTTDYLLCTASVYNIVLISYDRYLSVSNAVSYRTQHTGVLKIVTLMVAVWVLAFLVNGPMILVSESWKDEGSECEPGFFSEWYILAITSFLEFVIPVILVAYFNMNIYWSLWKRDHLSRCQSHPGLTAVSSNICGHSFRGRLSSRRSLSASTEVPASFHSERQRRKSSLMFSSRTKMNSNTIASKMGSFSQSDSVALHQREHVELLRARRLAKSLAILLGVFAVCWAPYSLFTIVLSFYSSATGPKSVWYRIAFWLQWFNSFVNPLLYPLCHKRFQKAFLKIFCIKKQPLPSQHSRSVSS
5-hydroxytryptamine receptor 1A (Homo sapiens), sequence (P08908 whole entry): as the sequence (P08908 whole entry) above
5-hydroxytryptamine receptor 1B, sequence (P28222 whole entry): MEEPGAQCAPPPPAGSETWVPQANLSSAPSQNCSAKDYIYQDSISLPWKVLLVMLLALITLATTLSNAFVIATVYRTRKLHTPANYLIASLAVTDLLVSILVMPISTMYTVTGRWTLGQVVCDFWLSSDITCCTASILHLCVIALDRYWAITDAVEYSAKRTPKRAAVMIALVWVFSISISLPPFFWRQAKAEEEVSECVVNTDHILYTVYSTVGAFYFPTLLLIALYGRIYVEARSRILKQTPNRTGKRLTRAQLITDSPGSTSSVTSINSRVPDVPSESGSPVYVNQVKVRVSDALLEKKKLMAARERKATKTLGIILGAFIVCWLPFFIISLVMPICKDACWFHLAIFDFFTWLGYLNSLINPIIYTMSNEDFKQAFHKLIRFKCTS
Kappa-type opioid receptor, sequence (P41145 whole entry): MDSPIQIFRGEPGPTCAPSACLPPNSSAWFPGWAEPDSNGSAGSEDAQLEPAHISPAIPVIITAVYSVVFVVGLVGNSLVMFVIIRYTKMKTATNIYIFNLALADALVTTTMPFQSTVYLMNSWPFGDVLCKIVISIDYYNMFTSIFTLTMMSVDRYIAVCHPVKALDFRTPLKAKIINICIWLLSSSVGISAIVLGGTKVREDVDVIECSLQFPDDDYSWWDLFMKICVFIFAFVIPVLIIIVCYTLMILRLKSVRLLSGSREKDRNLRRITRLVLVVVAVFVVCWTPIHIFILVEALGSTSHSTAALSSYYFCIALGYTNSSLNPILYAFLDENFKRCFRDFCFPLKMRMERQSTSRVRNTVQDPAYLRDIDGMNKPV
Adenosine receptor A1, sequence (P30542 whole entry): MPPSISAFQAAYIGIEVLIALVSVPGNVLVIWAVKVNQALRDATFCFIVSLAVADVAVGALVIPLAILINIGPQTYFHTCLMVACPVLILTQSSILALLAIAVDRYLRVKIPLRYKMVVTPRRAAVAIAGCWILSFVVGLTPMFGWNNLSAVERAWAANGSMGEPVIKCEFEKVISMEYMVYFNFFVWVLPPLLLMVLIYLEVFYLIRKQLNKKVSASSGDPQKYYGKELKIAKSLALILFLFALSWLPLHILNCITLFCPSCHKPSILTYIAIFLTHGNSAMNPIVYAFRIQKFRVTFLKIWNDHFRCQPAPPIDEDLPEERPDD

COc1cccc(N2CCN(CCCCn3ncc(=O)n(C)c3=O)CC2)c1
Ki (Adenosine receptor A1): > 10 µM
Ki [1]: > 10 µM
Ki [2]: > 10 µM
Ki (D(3) dopamine receptor): > 10 µM
Ki (Adenosine receptor A3): > 10 µM
Ki [3]: > 10 µM
Ki [4]: > 10 µM
Ki [5]: 378 nM
Ki [6]: > 10 µM
Ki [7]: > 10 µM
Ki [8]: 180 nM
Ki (Histamine H2 receptor): 2130 nM
Ki [9]: > 10 µM
Ki [10]: > 10 µM
Ki [11]: > 10 µM
Ki [12]: > 10 µM
Ki [13]: 328 nM
Ki [14]: > 10 µM
Ki [15]: > 10 µM
Ki [16]: > 10 µM
Ki (Histamine H4 receptor): > 10 µM
EC50 [17]: 0.3 nM
Ki (Histamine H1 receptor): 839 nM
Ki [18]: > 10 µM
Ki (Translocator protein): > 10 µM
Ki (Adenosine A2 receptor): > 10 µM
Ki (D(1B) dopamine receptor): > 10 µM
Ki [19]: 33.7 nM
Ki [20]: > 10 µM
Ki [21]: 2100 nM
Ki (D(4) dopamine receptor): > 10 µM
Ki [22]: > 10 µM
Ki [23]: 109 nM
Ki [24]: > 10 µM
Ki (D(2) dopamine receptor): 2580 nM
Ki [25]: 250 nM
Ki [26]: > 10 µM
Ki [27]: > 10 µM
Ki [28]: > 10 µM
Emax [29]: 95%
Ki [30]: 228 nM
Ki [31]: 1.1 nM
Ki [32]: > 10 µM
Ki (Adenosine receptor A2a): > 10 µM
Ki [33]: 413 nM
Ki [34]: > 10 µM
Ki [35]: > 10 µM
Ki (Histamine H3 receptor): > 10 µM
Activity (Baboon): Active
